{"source": "paper PMC11005723", "about": "“Development of Complementary Photo‐arginine/lysine to Promote Discovery of Arg/Lys hPTMs Interactomes” (Advanced Science, 2024)", "system": "HEK293T nuclear lysates", "assay": "SILAC‐based pull‐down proteomics H4K5me1/H4K5 (probes 6/5)", "assay_type": "binding, human", "settings": "for C6 log (H4K5me/H4K5): run C6; for B6 log2 (H4K5me/H4K5): run B6", "note": "Non-standard residues stand in square brackets, D forms with d. No end group written: not given here. *: point of attachment. Biotin = O=C1N[C@H]2[C@H](CS[C@H]2CCCCC(=O)*)N1; R(dz) = photo-arginine"}
{"substance": "probe 6: H4K5me peptide probe with photo‐arginine R(dz) and K(biotin) (SG[R(dz)]GK(Me)GGKGLGKGGK(Biotin))", "values": [{"measurement": "C6 log (H4K5me/H4K5)", "setting": "protein P46109 CRKL", "result": 0.1336}, {"measurement": "B6 log2 (H4K5me/H4K5)", "setting": "protein P49959 MRE11A", "result": 0.207}, {"measurement": "C6 log (H4K5me/H4K5)", "setting": "protein P49959 MRE11A", "result": 0.09642}, {"measurement": "B6 log2 (H4K5me/H4K5)", "setting": "protein P54886 ALDH18A1", "result": 0.2574}, {"measurement": "C6 log (H4K5me/H4K5)", "setting": "protein P54886 ALDH18A1", "result": 0.1226}, {"measurement": "B6 log2 (H4K5me/H4K5)", "setting": "protein P60842 EIF4A1", "result": 0.1721}, {"measurement": "C6 log (H4K5me/H4K5)", "setting": "protein P60842 EIF4A1", "result": 0.03464}, {"measurement": "B6 log2 (H4K5me/H4K5)", "setting": "protein P62140 PPP1CB", "result": 0.1941}, {"measurement": "C6 log (H4K5me/H4K5)", "setting": "protein P62140 PPP1CB", "result": 0.1375}, {"measurement": "B6 log2 (H4K5me/H4K5)", "setting": "protein P78527 PRKDC", "result": 0.1659}, {"measurement": "C6 log (H4K5me/H4K5)", "setting": "protein P78527 PRKDC", "result": 0.03578}, {"measurement": "B6 log2 (H4K5me/H4K5)", "setting": "protein P82979 SARNP", "result": 0.2593}, {"measurement": "C6 log (H4K5me/H4K5)", "setting": "protein P82979 SARNP", "result": 0.2358}, {"measurement": "B6 log2 (H4K5me/H4K5)", "setting": "protein P83916 CBX1", "result": 1.115}, {"measurement": "C6 log (H4K5me/H4K5)", "setting": "protein P83916 CBX1", "result": 1.115}, {"measurement": "B6 log2 (H4K5me/H4K5)", "setting": "protein Q5JRI1 FUSIP1", "result": 0.2091}, {"measurement": "C6 log (H4K5me/H4K5)", "setting": "protein Q5JRI1 FUSIP1", "result": 0.05687}, {"measurement": "B6 log2 (H4K5me/H4K5)", "setting": "protein Q5QPR4 CDC2L2", "result": 0.1546}, {"measurement": "C6 log (H4K5me/H4K5)", "setting": "protein Q5QPR4 CDC2L2", "result": 0.218}, {"measurement": "B6 log2 (H4K5me/H4K5)", "setting": "protein Q5SY16 NOL9", "result": 0.2457}, {"measurement": "C6 log (H4K5me/H4K5)", "setting": "protein Q5SY16 NOL9", "result": 0.6439}, {"measurement": "B6 log2 (H4K5me/H4K5)", "setting": "protein Q5T760 SFRS11", "result": 0.2194}, {"measurement": "C6 log (H4K5me/H4K5)", "setting": "protein Q5T760 SFRS11", "result": 0.159}, {"measurement": "B6 log2 (H4K5me/H4K5)", "setting": "protein Q5UIP0 RIF1", "result": 0.2471}, {"measurement": "C6 log (H4K5me/H4K5)", "setting": "protein Q5UIP0 RIF1", "result": 0.213}, {"measurement": "B6 log2 (H4K5me/H4K5)", "setting": "protein Q6PD62 CTR9", "result": 0.2151}, {"measurement": "C6 log (H4K5me/H4K5)", "setting": "protein Q6PD62 CTR9", "result": 0.2109}, {"measurement": "B6 log2 (H4K5me/H4K5)", "setting": "protein Q6PJT7 ZC3H14", "result": 0.2381}, {"measurement": "C6 log (H4K5me/H4K5)", "setting": "protein Q6PJT7 ZC3H14", "result": 0.2485}, {"measurement": "B6 log2 (H4K5me/H4K5)", "setting": "protein Q7Z6E9 RBBP6", "result": 0.1468}, {"measurement": "C6 log (H4K5me/H4K5)", "setting": "protein Q7Z6E9 RBBP6", "result": 0.358}, {"measurement": "B6 log2 (H4K5me/H4K5)", "setting": "protein Q8IX15 HOMEZ", "result": 0.2323}, {"measurement": "C6 log (H4K5me/H4K5)", "setting": "protein Q8IX15 HOMEZ", "result": 0.1198}, {"measurement": "B6 log2 (H4K5me/H4K5)", "setting": "protein Q8N3X1 FNBP4", "result": 0.1827}, {"measurement": "C6 log (H4K5me/H4K5)", "setting": "protein Q8N3X1 FNBP4", "result": 0.2005}, {"measurement": "B6 log2 (H4K5me/H4K5)", "setting": "protein Q8N5C6 SRBD1", "result": 0.1982}, {"measurement": "C6 log (H4K5me/H4K5)", "setting": "protein Q8N5C6 SRBD1", "result": 0.09557}, {"measurement": "B6 log2 (H4K5me/H4K5)", "setting": "protein Q8N163 KIAA1967", "result": 0.1537}, {"measurement": "C6 log (H4K5me/H4K5)", "setting": "protein Q8N163 KIAA1967", "result": 0.2348}, {"measurement": "B6 log2 (H4K5me/H4K5)", "setting": "protein Q8TDD1 DDX54", "result": 0.1648}, {"measurement": "C6 log (H4K5me/H4K5)", "setting": "protein Q8TDD1 DDX54", "result": 0.2394}, {"measurement": "B6 log2 (H4K5me/H4K5)", "setting": "protein Q9BVJ6 UTP14A", "result": 0.973}, {"measurement": "C6 log (H4K5me/H4K5)", "setting": "protein Q9BVJ6 UTP14A", "result": 0.973}, {"measurement": "B6 log2 (H4K5me/H4K5)", "setting": "protein Q9H2P0 ADNP", "result": 0.2412}, {"measurement": "C6 log (H4K5me/H4K5)", "setting": "protein Q9H2P0 ADNP", "result": -0.7035}, {"measurement": "B6 log2 (H4K5me/H4K5)", "setting": "protein Q9H7L9 SUDS3", "result": 1.175}, {"measurement": "C6 log (H4K5me/H4K5)", "setting": "protein Q9H7L9 SUDS3", "result": 1.175}, {"measurement": "B6 log2 (H4K5me/H4K5)", "setting": "protein Q9H9A6 LRRC40", "result": 0.1942}, {"measurement": "C6 log (H4K5me/H4K5)", "setting": "protein Q9H9A6 LRRC40", "result": 0.05299}, {"measurement": "B6 log2 (H4K5me/H4K5)", "setting": "protein Q9UBD5 ORC3", "result": 0.1586}, {"measurement": "C6 log (H4K5me/H4K5)", "setting": "protein Q9UBD5 ORC3", "result": -0.1103}, {"measurement": "B6 log2 (H4K5me/H4K5)", "setting": "protein Q9UBW7 ZMYM2", "result": 0.2577}, {"measurement": "C6 log (H4K5me/H4K5)", "setting": "protein Q9UBW7 ZMYM2", "result": 0.2945}, {"measurement": "B6 log2 (H4K5me/H4K5)", "setting": "protein Q9UHB6 LIMA1", "result": 0.1593}, {"measurement": "C6 log (H4K5me/H4K5)", "setting": "protein Q9UHB6 LIMA1", "result": 0.1812}, {"measurement": "B6 log2 (H4K5me/H4K5)", "setting": "protein Q9UQ80 PA2G4", "result": 0.1452}, {"measurement": "C6 log (H4K5me/H4K5)", "setting": "protein Q9UQ80 PA2G4", "result": -0.04803}, {"measurement": "B6 log2 (H4K5me/H4K5)", "setting": "protein Q9UQR0 SCML2", "result": 0.7435}, {"measurement": "C6 log (H4K5me/H4K5)", "setting": "protein Q9UQR0 SCML2", "result": 0.7435}, {"measurement": "B6 log2 (H4K5me/H4K5)", "setting": "protein Q9Y2L1 DIS3", "result": 0.1845}, {"measurement": "C6 log (H4K5me/H4K5)", "setting": "protein Q9Y2L1 DIS3", "result": 0.1312}, {"measurement": "B6 log2 (H4K5me/H4K5)", "setting": "protein Q9Y6C9 MTCH2", "result": 0.1565}, {"measurement": "C6 log (H4K5me/H4K5)", "setting": "protein Q9Y6C9 MTCH2", "result": -0.06142}, {"measurement": "B6 log2 (H4K5me/H4K5)", "setting": "protein Q86VP6 CAND1", "result": 0.1606}, {"measurement": "C6 log (H4K5me/H4K5)", "setting": "protein Q86VP6 CAND1", "result": 0.2263}, {"measurement": "B6 log2 (H4K5me/H4K5)", "setting": "protein Q00839 HNRNPU", "result": 0.2071}, {"measurement": "C6 log (H4K5me/H4K5)", "setting": "protein Q00839 HNRNPU", "result": 0.1339}, {"measurement": "B6 log2 (H4K5me/H4K5)", "setting": "protein Q01082 SPTBN1", "result": 0.2576}, {"measurement": "C6 log (H4K5me/H4K5)", "setting": "protein Q01082 SPTBN1", "result": 0.166}, {"measurement": "B6 log2 (H4K5me/H4K5)", "setting": "protein Q06265 EXOSC9", "result": 0.1802}, {"measurement": "C6 log (H4K5me/H4K5)", "setting": "protein Q06265 EXOSC9", "result": 0.08146}, {"measurement": "B6 log2 (H4K5me/H4K5)", "setting": "protein Q06330 RBPJ", "result": 0.1919}, {"measurement": "C6 log (H4K5me/H4K5)", "setting": "protein Q06330 RBPJ", "result": -0.04363}, {"measurement": "B6 log2 (H4K5me/H4K5)", "setting": "protein Q09161 NCBP1", "result": 0.2194}, {"measurement": "C6 log (H4K5me/H4K5)", "setting": "protein Q09161 NCBP1", "result": 0.2078}, {"measurement": "B6 log2 (H4K5me/H4K5)", "setting": "protein Q12874 SF3A3", "result": 0.1922}, {"measurement": "C6 log (H4K5me/H4K5)", "setting": "protein Q12874 SF3A3", "result": 0.1113}, {"measurement": "B6 log2 (H4K5me/H4K5)", "setting": "protein Q12888 TP53BP1", "result": 0.2132}, {"measurement": "C6 log (H4K5me/H4K5)", "setting": "protein Q12888 TP53BP1", "result": 0.1756}, {"measurement": "B6 log2 (H4K5me/H4K5)", "setting": "protein Q13185 CBX3", "result": 1.132}, {"measurement": "C6 log (H4K5me/H4K5)", "setting": "protein Q13185 CBX3", "result": 1.132}, {"measurement": "B6 log2 (H4K5me/H4K5)", "setting": "protein Q13363 CTBP1", "result": 0.1923}, {"measurement": "C6 log (H4K5me/H4K5)", "setting": "protein Q13363 CTBP1", "result": -0.1428}, {"measurement": "B6 log2 (H4K5me/H4K5)", "setting": "protein Q13416 ORC2", "result": 0.2451}, {"measurement": "C6 log (H4K5me/H4K5)", "setting": "protein Q13416 ORC2", "result": 0.438}, {"measurement": "B6 log2 (H4K5me/H4K5)", "setting": "protein Q14137 BOP1", "result": 0.2019}, {"measurement": "C6 log (H4K5me/H4K5)", "setting": "protein Q14137 BOP1", "result": -0.001199}, {"measurement": "B6 log2 (H4K5me/H4K5)", "setting": "protein Q14498 RBM39", "result": 0.2408}, {"measurement": "C6 log (H4K5me/H4K5)", "setting": "protein Q14498 RBM39", "result": 0.2735}, {"measurement": "B6 log2 (H4K5me/H4K5)", "setting": "protein Q14683 SMC1A", "result": 0.1556}, {"measurement": "C6 log (H4K5me/H4K5)", "setting": "protein Q14683 SMC1A", "result": 0.1782}, {"measurement": "B6 log2 (H4K5me/H4K5)", "setting": "protein Q15459 SF3A1", "result": 0.2515}, {"measurement": "C6 log (H4K5me/H4K5)", "setting": "protein Q15459 SF3A1", "result": 0.3427}, {"measurement": "B6 log2 (H4K5me/H4K5)", "setting": "protein Q16555 DPYSL2", "result": 0.7641}, {"measurement": "C6 log (H4K5me/H4K5)", "setting": "protein Q16555 DPYSL2", "result": 0.7641}, {"measurement": "B6 log2 (H4K5me/H4K5)", "setting": "protein Q16658 FSCN1", "result": 0.2138}, {"measurement": "C6 log (H4K5me/H4K5)", "setting": "protein Q16658 FSCN1", "result": 0.727}, {"measurement": "B6 log2 (H4K5me/H4K5)", "setting": "protein Q92688 ANP32B", "result": 0.1648}, {"measurement": "C6 log (H4K5me/H4K5)", "setting": "protein Q92688 ANP32B", "result": 0.135}, {"measurement": "B6 log2 (H4K5me/H4K5)", "setting": "protein Q99613 EIF3C", "result": 0.2459}, {"measurement": "C6 log (H4K5me/H4K5)", "setting": "protein Q99613 EIF3C", "result": 0.04711}]}
